Like-named read-outs stand apart in the source and are kept apart here.

Data on eight compounds can be found in patent US10073103B1, “Rapid measurement of total vitamin D in blood” (Theranos, Inc., priority 2013, dated 2018).

In data set [1] the test system is antibody to 25-hydroxy vitamin D. To be noted: as stated in the manufacturer's product insert; cited from earlier work.
Data set [2] concerns antivitamin-D coated microparticles. More on the design: concentration or dose not given beside the values. The settings on record: as stated in the manufacturer's product insert; cited from earlier work.
For data set [3] the following is noted: as stated in the manufacturer's product insert; cited from earlier work.
Data set [4] relates to anti-25-hydroxy vitamin D antibodies (Ab5H10 and Ab2F4). In words: Cross-reactivity test of the present competitive chemiluminescent ELISA in low BSA buffer. In kind it is binding, sheep. To be noted: for Cross reactivity as potentially interfering compound (in words): final assay conditions. The protocol: The liquid phase of the assay reaction included the sample (mixed with the sample diluent) and included the anti-vitamin-D antibodies and the alkaline phosphatase (AP) conjugate. As discussed below, in many cases mixtures of two types of anti-vitamin D antibodies were used. For example, in many cases, the anti-vitamin-D antibodies Ab5H10 and Ab2F4 were mixed into the diluted sample (final concentrations 10 ng/mL Ab5H10 and 5 ng/mL Ab2F4), and then the AP conjugate was mixed into the solution that included the sample, the sample diluent, and the anti-vitamin-D antibodies. This liquid mixture was incubated with the capture surface (anti-sheep antibody bound to UltraAvidin™-coated polystyrene).
Vitamin D assay methods using pepsin degradation of vitamin D binding proteins at low pH were then further optimized in subsequent experiments, including experiments performed at an operating temperature of 34° C. […] This sample treatment and assay protocol consisted of a 1:5 dilution of the sample into 10 mg/mL pepsin in 100 mM citrate buffer pH 2.6, followed by a 1:8 dilution into 50 mM TRIS pH 8.0 which brought the pH of the diluted sample to 8.0 and neutralized the pepsin. Then the sheep anti-25-hydroxy vitamin D antibody was added and incubated with the sample for 10 minutes. Following addition of the anti-25-hydroxy vitamin D antibody, the 25-hydroxy vitamin D-AP conjugate was added, resulting in a final sample dilution of 1:50. The mixture was then incubated on the anti-sheep capture surface for 5 minutes, followed by a wash and 5 minute substrate incubation.
1. Sample was diluted 1:5 into 100 mM Citrate buffer pH 2.6 containing 10 mg/mL pepsin and mixed (final pH 3.9) for 5 minutes at 34° C.
2. Treated sample was diluted a further 1:8 into 50 mM TRIS buffer pH 8.0 to permanently deactivate the pepsin, and anti-25-hydroxy vitamin D antibody in a blocking buffer was spiked in and mixed. This mixture was incubated for 10 minutes.
3. The AP-labeled 25-hydroxy vitamin D was added to the sample mixture and then transferred to the capture surface (biotinylated anti-sheep secondary antibody bound to UltraAvidin™-coated polystyrene) and incubated for 5 minutes.
4. The surface was washed six times (1 minute for each wash cycle) with 0.05% Tween20® in 50 mM TBS containing 0.05% sodium azide at pH8.0.
5. The washed capture surface was exposed to enzyme substrate for five minutes and the chemiluminescence was read in an automated luminometer.
Tests were performed in order to determine whether non-target compounds could interfere with the assay results. Such tests, termed “cross-reactivity tests”, measured the change in measured 25-hydroxy vitamin D due to the presence of a non-target substance by comparing the value of 25-hydroxy vitamin D measured by the present methods where a potentially interfering compound was in the sample, as compared to the value of 25-hydroxy vitamin D measured by the present methods in the absence of the potentially interfering compound. Cross reactivity testing was conducted using the final assay conditions in a low BSA buffer matrix (0.03% BSA in TBS). Cross-reactivity was reported in these assays as % recovery=100×([measured vitamin D])/([nominal vitamin D]); [measured vitamin D] is the 25-hydroxy vitamin D concentration measured in the presence of the potentially interfering compound, and [nominal vitamin D] is the 25-hydroxy vitamin D concentration measured in the absence of the potentially interfering compound. […] (Note that an interfering compound would displace labeled 25-hydroxy vitamin D in the competition assays disclosed herein, so that the interfering compound would cause an apparent (erroneous) increase in the measured 25-hydroxy vitamin D.) For comparison, values for 25-hydroxy vitamin D3 (a direct target of the assay, and not a cross-reactant) are presented in the table.

For data set [5] the following is noted: as stated in the manufacturer's product insert, b197 cites literature, cited from earlier work.
The nature of data set [6]: Reagent stability: lyophilized pepsin versus frozen aliquots, compared by vitamin D results on clinical samples. The settings on record: 10 mg/mL, reconstituted with 100 mM citrate buffer pH 2.6. The protocol: The stability of pepsin in frozen aliquots of aqueous pepsin solution and of dry, lyophilized pepsin (e.g., a lyophilized powder formed from an aqueous pepsin solution) was measured. Pepsin was lyophilized in containers suitable for use when reconstituted, e.g., in an automated assay device. The pepsin was provided in a solution at a concentration of 10 mg/mL and was lyophilized into the containers to obtain the final reconstituted amount and concentration equal to the concentration and amounts used in the assay methods disclosed herein. The containers of lyophilized reagent were placed into cartridges (arrays including several such containers) and the reagent was reconstituted with 100 mM citrate buffer (pH 2.6). Clinical samples were used for comparison, and the vitamin D results were calculated for both conditions based on the standard curve obtained for frozen pepsin/buffer aliquots.

Setting [7] is: test substance 50 ng/mL, OORL = out of range - low, below the detection limit.
[8] abbreviates: test substance 50 ng/mL, low BSA buffer.
[9] abbreviates: test substance 100 ng/mL, OORL = out of range - low, below the detection limit.
[10] abbreviates: test substance 100 ng/mL, low BSA buffer.
[11] abbreviates: test substance 150 ng/mL, OORL = out of range - low, below the detection limit.
Where [12] appears, read: test substance 150 ng/mL, low BSA buffer (0.03% BSA in TBS).

Take `C=C1/C(=C\C=C2/CCC[C@]3(C)[C@@H]([C@H](C)CCCC(C)(C)O)CC[C@@H]23)C[C@@H](O)C[C@@H]1O` [1α,25-Dihydroxy Vitamin D3, 1α,25-dihydroxy vitamin D3]: in data set [1], the “Vitamin D metabolite cross reactivity, DiaSorin 25-Hydroxyvitamin D 125I RIA” value is listed as 11%. Further, the “Vitamin D metabolite cross reactivity, DiaSorin Liaison 25 OH Vitamin D TOTAL” value in data set [2] is reported as 17%. The “Vitamin D metabolite cross reactivity, Roche Vitamin D3 (25-OH)” value in data set [3] is given as “up to 100%”. Moreover, the “Vitamin D metabolite cross reactivity, Present Methods” value in data set [4] is 70%. In data set [4] (low BSA buffer), the “Cross reactivity as potentially interfering compound (in words)” value (shortened to “Cross reactivity … (in words)”) is recorded as “Some cross reactivity”. Further, the “% Recovery” value was determined as 73% in data set [4] (test substance 50 ng/mL), 61% in data set [4] (test substance 100 ng/mL) and 71% in data set [4] (test substance 150 ng/mL). The “Conc., ng/mL Mean (measured 25-hydroxy vitamin D)” value (“Conc., ng/mL Mean” below) in data set [4] (setting [7]) came to 36.5 ng/mL; in data set [4] (setting [9]) it was 60.6 ng/mL; in data set [4] (setting [11]), 107.1 ng/mL. The “Signal, RLU Mean” value in data set [4] (setting [8]) is 7804 RLU; in data set [4] (setting [10]) it was 3642 RLU; in data set [4] (setting [12]), 2352 RLU.

For `C=C1CC[C@H](O)C/C1=C/C=C1\CCC[C@]2(C)[C@@H]([C@H](C)CCCC(C)(C)O)CC[C@@H]12` [25-Hydroxy vitamin D3, 25-hydroxy vitamin D3], the “Vitamin D metabolite cross reactivity, DiaSorin 25-Hydroxyvitamin D 125I RIA” value in data set [1] is listed as 100%. The “Vitamin D metabolite cross reactivity, DiaSorin Liaison 25 OH Vitamin D TOTAL” value in data set [2] is reported as 100%. Besides, the “Vitamin D metabolite cross reactivity, IDS ELISA kit” value in data set [5] is on record as 100%. Moreover, the “Vitamin D metabolite cross reactivity, Roche Vitamin D3 (25-OH)” value in data set [3] is 100%. Besides, the “Vitamin D metabolite cross reactivity, Present Methods” value in data set [4] is listed as 100%. For the same compound, the “% Recovery” value was 110% in data set [4] (test substance 10 ng/mL); 83% in data set [4] (test substance 25 ng/mL); 111% in data set [4] (test substance 50 ng/mL); 77% in data set [4] (test substance 100 ng/mL); 70% in data set [4] (test substance 150 ng/mL). The “Conc., ng/mL Mean” value in data set [4] (test substance 10 ng/mL) came to 11.0 ng/mL; in data set [4] (test substance 25 ng/mL), 20.8 ng/mL; in data set [4] (setting [7]), 55.5 ng/mL; in data set [4] (setting [9]), 76.5 ng/mL; in data set [4] (setting [11]), 104.5 ng/mL. Further, the “Signal, RLU Mean” value in data set [4] (test substance 10 ng/mL, low BSA buffer) amounted to 20071 RLU; in data set [4] (test substance 25 ng/mL, low BSA buffer) it was 14076 RLU; in data set [4] (setting [8]) it was 4044 RLU; in data set [4] (setting [10]), 2941 RLU; in data set [4] (setting [12]) it was 2432 RLU.

Regarding `C=C1CCC(O)C/C1=C\C=C1\CCCC2(C)C1CCC2C(C)CCC(O)C(C)(C)O` (stereo not drawn) [24,25-Dihydroxy Vitamin D3, 24,25-dihydroxy vitamin D3], the “Vitamin D metabolite cross reactivity, IDS ELISA kit” value in data set [5] is on record as above 100%. The “Cross reactivity … (in words)” value in data set [4] (low BSA buffer) is recorded as “No cross reactivity”. Also, the “Conc., ng/mL Mean” value in data set [4] (setting [7]), in data set [4] (setting [9]) and in data set [4] (setting [11]) was “OORL” throughout. Besides, the entries for the “Signal, RLU Mean” value in data set [4] (setting [8]), in data set [4] (setting [10]) and in data set [4] (setting [12]) were 25059 RLU, 23735 RLU and 22992 RLU, respectively.

Consider `C=C1CC[C@H](O)C/C1=C/C=C1\CCC[C@]2(C)[C@@H]([C@H](C)CCCC(C)C)CC[C@@H]12` [Cholecalciferol (Vitamin D3), cholecalciferol], for which, in data set [1], the “Vitamin D metabolite cross reactivity, DiaSorin 25-Hydroxyvitamin D 125I RIA” value was 0.8%. Also, in data set [2], the “Vitamin D metabolite cross reactivity, DiaSorin Liaison 25 OH Vitamin D TOTAL” value was below 1%. Further, the “Vitamin D metabolite cross reactivity, IDS ELISA kit” value in data set [5] is below 0.01%. In data set [3], the “Vitamin D metabolite cross reactivity, Roche Vitamin D3 (25-OH)” value is reported as below 1%. For the same compound, the “Vitamin D metabolite cross reactivity, Present Methods” value in data set [4] is recorded as below 0.01%. In data set [4] (low BSA buffer), the “Cross reactivity … (in words)” value is given as “No cross reactivity”. Besides, the “Conc., ng/mL Mean” value in data set [4] (setting [7]), in data set [4] (setting [9]) and in data set [4] (setting [11]) was “OORL” each time. Moreover, the “Signal, RLU Mean” value came to 31046 RLU in data set [4] (setting [8]), 30864 RLU in data set [4] (setting [10]) and 31607 RLU in data set [4] (setting [12]).

As to “pepsin: porcine gastric mucosa pepsin (Sigma catalog # P7000)”, the “Stability: results with lyophilized reagent versus (thawed) frozen aliquot” value in data set [6] is on record as “no significant differences”.

`C=C1CC[C@H](O)C/C1=C/C=C1\CCC[C@]2(C)[C@@H]([C@H](C)/C=C/[C@H](C)C(C)C)CC[C@@H]12` [Ergocalciferol (Vitamin D2), ergocalciferol]: the “Vitamin D metabolite cross reactivity, DiaSorin 25-Hydroxyvitamin D 125I RIA” value in data set [1] is on record as 0.8%. Also, the “Vitamin D metabolite cross reactivity, DiaSorin Liaison 25 OH Vitamin D TOTAL” value in data set [2] is below 1%. In addition, the “Vitamin D metabolite cross reactivity, IDS ELISA kit” value in data set [5] is on record as below 0.3%. Also, the “Vitamin D metabolite cross reactivity, Roche Vitamin D3 (25-OH)” value in data set [3] is recorded as below 1%. The “Vitamin D metabolite cross reactivity, Present Methods” value in data set [4] is listed as below 0.01%. Further, the “Cross reactivity … (in words)” value in data set [4] (low BSA buffer) is “No cross reactivity”. The “Conc., ng/mL Mean” value in data set [4] (setting [7]), in data set [4] (setting [9]) and in data set [4] (setting [11]) was “OORL” in each case. For the same compound, the “Signal, RLU Mean” value is 30040 RLU in data set [4] (setting [8]), 27040 RLU in data set [4] (setting [10]) and 30935 RLU in data set [4] (setting [12]).

Turning to `C=C1/C(=C\C=C2/CCC[C@]3(C)[C@@H]([C@H](C)/C=C/[C@H](C)C(C)(C)O)CC[C@@H]23)C[C@@H](O)C[C@@H]1O` [1.25(OH)2 D2, 1,25-dihydroxy vitamin D2], the “Vitamin D metabolite cross reactivity, DiaSorin 25-Hydroxyvitamin D 125I RIA” value in data set [1] is 11%. Moreover, the “Vitamin D metabolite cross reactivity, DiaSorin Liaison 25 OH Vitamin D TOTAL” value in data set [2] was 40%.

`C=C1CC[C@H](O)C/C1=C/C=C1\CCC[C@]2(C)[C@@H]([C@H](C)/C=C/[C@H](C)C(C)(C)O)CC[C@@H]12` [25(OH) D2, 25-hydroxy vitamin D2]: the “Vitamin D metabolite cross reactivity, DiaSorin 25-Hydroxyvitamin D 125I RIA” value in data set [1] was 100%. For the same compound, the “Vitamin D metabolite cross reactivity, DiaSorin Liaison 25 OH Vitamin D TOTAL” value in data set [2] is listed as 104%. Also, the “Vitamin D metabolite cross reactivity, IDS ELISA kit” value in data set [5] and in data set [5] (listed as 25-hydroxy Vitamin D2) was 75% each time. Moreover, the “Vitamin D metabolite cross reactivity, Roche Vitamin D3 (25-OH)” value in data set [3] was below 10%. Further, in data set [4], the “Vitamin D metabolite cross reactivity, Present Methods” value is given as 110%.
